Measurements as given in ChEMBL document CHEMBL5131389, “PSMA-targeted small-molecule docetaxel conjugate: Synthesis and preclinical evaluation” (Eur J Med Chem, 2022).
“And” between values parts separate entries of the source, which are not always exact repeats. Equal entries are not always repeated. The source made the active and inactive calls. No cut-off for these calls is given here.

Columns and labels:
[1] = Selectivity ratio of CC50 for cytotoxicity against human PC-3 cells to CC50 for cytotoxicity against human 22Rv1 cells
PC-3 = experiment: Effect on cell stiffness in human PC-3 cells assessed as increase in young's modulus at 2.8 nM measured after 1 hr by topography based scanning ion-conductance microscopic analysis; type: functional
[2] = Stability of the compound in pH 5.5 buffer measured upto 96 hrs by LC-MS based mass spectrometric analysis; type: physicochemical; conditions: pH 5.5, 96 h
CWR22R [3] = experiment: Antitumor activity against human 22Rv1 cells xenografted in Balb/c nude mouse assessed as tumor growth inhibition at 10 mg/kg, ip administered once in two days for three times and measured 1 day after the end of treatment relative to control; type: functional; conditions: 22Rv1, 168 h, time 7 day, read-out: TGI
CWR22R [4] = experiment: Antitumor activity against human 22Rv1 cells xenografted in Balb/c nude mouse assessed as tumor growth inhibition at 20 mg/kg, ip administered once in two days for three times and measured 4 days after the end of treatment relative to control; type: functional; conditions: 22Rv1, 240 h, time 10 day, read-out: TGI
[5] = Toxicity in Balb/c nude mouse xenografted with human 22Rv1 cells assessed as animal death at 30 mg/kg, ip measured upto 30 days; type: organism-based, CWR22R; conditions: in vivo, 720 h, time < 30 day
DU-145 = experiment: Antitumor activity against human DU-145 cells xenografted in BALB/c nude mouse assessed as reduction in tumor growth index at 60 mg/kg, ip measured upto 30 days (reference value: 1110.1 +/- 136.7 %); type: functional; set-up: scale not given: the % may be the effect or the level left; conditions: time <= 30 day
[6] = Acute toxicity in Wistar rat assessed as decrease in body weight administered intravenously as pluronic F127 formulation and measured for 14 days; conditions: in vivo, iv, 336 h, dose 15-279 mg/kg, time 14 day
[7] = Acute toxicity in ICR mouse assessed as coprostasis at 183 to 960 mg/kg, iv administered as pluronic F127 formulation and measured for 14 days; type: organism-based; conditions: in vivo, 336 h, dose 183-960 mg/kg, time 14 day
[8] = Acute toxicity in Wistar rat assessed as hypertrophied adrenal gland at 15 to 279 mg/kg, iv administered as pluronic F127 formulation and measured for 14 days; type: organism-based; conditions: in vivo, 336 h, dose 15-279 mg/kg, time 14 day
[9] = Acute toxicity in ICR mouse assessed as liver damage at 183 to 960 mg/kg, iv administered as pluronic F127 formulation and measured for 14 days; type: organism-based; conditions: in vivo, 336 h, dose 183-960 mg/kg, time 14 day
[10] = Acute toxicity in ICR mouse assessed as maximum tolerated dose administered intravenously as pluronic F127 formulation and measured for 14 days; conditions: in vivo, route iv, time 14 day
[11] = Acute toxicity in Wistar rat assessed as lethal dose administered intravenously as pluronic F127 formulation and measured for 14 days; conditions: in vivo, route iv, time 14 day
[12] = C0 in Albino Wistar rat at 15 mg/kg, iv administered as pluronic F127 formulation measured upto 72 hrs by high-performance liquid chromatography tandem mass spectrometric analysis; type: ADME, organism-based; conditions: in vivo
[13] = AUC (0 to infinity) in Soviet Chinchilla rabbit at 8.1 mg/kg, iv administered as pluronic F127 formulation measured upto 72 hrs by high-performance liquid chromatography tandem mass spectrometric analysis; type: ADME, organism-based, Oryctolagus cuniculus; set-up: dose 8.1 mg/kg, time < 72 hrs, route iv; conditions: in vivo
[14] = Ratio of AUC (t to infinity) to AUC (0 to infinity) in Albino Wistar rat at 15 mg/kg, iv administered as pluronic F127 formulation measured upto 72 hrs by high-performance liquid chromatography tandem mass spectrometric analysis; type: ADME, organism-based; conditions: in vivo
[15] = Half-life in Albino Wistar rat at 15 mg/kg, iv administered as pluronic F127 formulation measured upto 72 hrs by high-performance liquid chromatography tandem mass spectrometric analysis; type: ADME, organism-based; conditions: in vivo
[16] = Volume of distribution in Soviet Chinchilla rabbit at 8.1 mg/kg, iv administered as pluronic F127 formulation measured upto 72 hrs by high-performance liquid chromatography tandem mass spectrometric analysis; type: ADME, organism-based, Oryctolagus cuniculus; conditions: in vivo
[17] = MRT (0 to t) in Soviet Chinchilla rabbit at 8.1 mg/kg, iv administered as pluronic F127 formulation measured upto 72 hrs by high-performance liquid chromatography tandem mass spectrometric analysis; type: ADME, organism-based, Oryctolagus cuniculus; conditions: in vivo
[18] = MRT (0 to t) in Albino Wistar rat at 15 mg/kg, iv administered as pluronic F127 formulation measured upto 72 hrs by high-performance liquid chromatography tandem mass spectrometric analysis; type: ADME, organism-based; conditions: in vivo
[19] = Subchronic toxicity in Wistar rat assessed as tolerance at 58 mg/kg, iv administered as pluronic F127 formulation daily for 28 days; type: organism-based; conditions: in vivo, 672 h, time 28 day
[20] = Chronic toxicity in rat assessed as reduction in number of crossed squares at 22.5 mg/kg, iv administered as pluronic F127 formulation at 4 intervals for 21 days and observed 3 weeks post last injection; type: organism-based; conditions: in vivo, 2544 h, time 106 day
[21] = Chronic toxicity in rat assessed as reduction in standing up at 22.5 mg/kg, iv administered as pluronic F127 formulation at 4 intervals for 21 days and observed 3 weeks post last injection; type: organism-based; conditions: in vivo, 2544 h, time 106 day
[22] = Chronic toxicity in rat assessed as reduction in number of peeping into holes at 22.5 mg/kg, iv administered as pluronic F127 formulation at 4 intervals for 21 days and observed 3 weeks post last injection; type: organism-based; conditions: in vivo, 2544 h, time 106 day
[23] = Chronic toxicity in rat assessed as neurological disorder at 22.5 mg/kg, iv administered as pluronic F127 formulation at 4 intervals for 21 days and observed 3 weeks post last injection; type: organism-based; conditions: in vivo, 2544 h, time 106 day
[24] = Chronic toxicity in rat assessed as change in alkaline phosphatase level at 18.75 to 22.5 mg/kg, iv administered as pluronic F127 formulation at 4 intervals for 21 days and observed 3 weeks post last injection; type: organism-based; conditions: in vivo, 2544 h, dose 18.75-22.5 mg/kg, time 106 day
[25] = Chronic toxicity in rat assessed as decrease in erythrocytes in blood administered intravenously as pluronic F127 formulation at 4 intervals for 21 days and observed 3 weeks post last injection relative to control; type: cell-based; conditions: iv, 2544 h, time 106 day
[26] = Chronic toxicity in rat assessed as increase in relative spleen mass at 18.75 mg/kg, iv administered as pluronic F127 formulation at 4 intervals for 21 days and observed 3 weeks post last injection relative to control; type: organism-based; conditions: in vivo, 2544 h, time 106 day
[27] = Chronic toxicity in rat assessed as increase in relative brain mass administered intravenously as pluronic F127 formulation at 4 intervals for 21 days and observed 3 weeks post last injection relative to control; type: tissue-based; conditions: in vivo, iv, 2544 h, time 106 day
[28] = Chronic toxicity in rat assessed as increase in relative mass of stomach administered intravenously as pluronic F127 formulation at 4 intervals for 21 days and observed 3 weeks post last injection relative to control; type: tissue-based; conditions: in vivo, iv, 2544 h, time 106 day
[29] = Chronic toxicity in rat assessed as increase in relative mass of pancreas administered intravenously as pluronic F127 formulation at 4 intervals for 21 days and observed 3 weeks post last injection relative to control; type: tissue-based; conditions: in vivo, iv, 2544 h, time 106 day
[30] = Chronic toxicity in Soviet Chinchilla rabbit assessed as increase in relative liver mass administered intravenously as pluronic F127 formulation at 4 intervals for 21 days and observed 3 weeks post last injection relative to control; type: tissue-based, Oryctolagus cuniculus; conditions: in vivo, iv, 2544 h, time 106 day

CC(=O)O[C@@]12CO[C@@H]1C[C@H](O)[C@@]1(C)C(=O)[C@H](O)C3=C(C)[C@@H](OC(=O)[C@H](OC(=O)CCCc4cn(CCCNC(=O)[C@H](Cc5ccc(O)cc5)NC(=O)[C@H](Cc5ccccc5)NC(=O)CCC(=O)NCCCCCC(=O)N(CCCC[C@H](NC(=O)N[C@@H](CCC(=O)O)C(=O)O)C(=O)O)Cc5cccc(Cl)c5)nn4)[C@@H](NC(=O)OC(C)(C)C)c4ccccc4)C[C@@](O)([C@@H](OC(=O)c4ccccc4)[C@H]21)C3(C)C
Selectivity ratio [1]: 1
Activity (PC-3): Active
Stability [2]: Unstable
inhibition in vivo at 10 mg/kg (CWR22R [3]): 84%
inhibition in vivo at 20 mg/kg (CWR22R [4]): 85%
Activity [5]: Toxic
Activity (DU-145): 150.9%
Activity [6]: Toxic
Activity [7]: Toxic
Activity [8]: Toxic
Activity [9]: Toxic
MTD at 336 h [10]: 183 mg/kg
LD50 at 336 h [11]: 58 mg/kg and 30 µmol/kg
C0 at 72 h [12]: 153 µg/mL
AUC(0-inf) [13]: 289 µg·h/mL
Ratio AUC [14]: 11%
half-life [15]: 59.8 min
Vd [16]: 0.332 L/kg
MRT last at 72 h [17]: 444 min
MRT last at 72 h [18]: 24 min
Activity [19]: Toxic
Activity [20]: Toxic
Activity [21]: Toxic
Activity [22]: Toxic
Activity [23]: Toxic
Activity [24]: Non-Toxic
Activity [25]: Toxic
Activity [26]: Toxic
Activity [27]: Toxic
Activity [28]: Toxic
Activity [29]: Toxic
Activity [30]: Toxic
